Measurements from patent US8772480B2, “Inhibitors of PI3 kinase and/or mTOR” (priority 2009, dated 2014).
Where two headings read alike, the source gives them in different places.

Key:
PI3Kα [1] = molecular target: T1, PI3Kα (Homo sapiens (Human), UniProt P42336); test: biochemical; settings: PI3Kα AlphaScreen ® Ki
[2] = test system: phosphorylation of Akt at Serine 473 in U87 MG cells; test: cells; settings: Homo sapiens, U-87 MG, 2 h, read-out: U87Cell IC50, pAkt (Ser 473), U87 MG cells, two hours with compound
PI3Kα [3] = molecular target: T1, PI3Kα; settings: read-out: PI3Kα AlphaScreen ® Ki
[4] = test system: phosphorylation of Akt at Serine 473 in U87 MG cells; settings: read-out: U87Cell IC50

T1 sequence (P42336 whole entry): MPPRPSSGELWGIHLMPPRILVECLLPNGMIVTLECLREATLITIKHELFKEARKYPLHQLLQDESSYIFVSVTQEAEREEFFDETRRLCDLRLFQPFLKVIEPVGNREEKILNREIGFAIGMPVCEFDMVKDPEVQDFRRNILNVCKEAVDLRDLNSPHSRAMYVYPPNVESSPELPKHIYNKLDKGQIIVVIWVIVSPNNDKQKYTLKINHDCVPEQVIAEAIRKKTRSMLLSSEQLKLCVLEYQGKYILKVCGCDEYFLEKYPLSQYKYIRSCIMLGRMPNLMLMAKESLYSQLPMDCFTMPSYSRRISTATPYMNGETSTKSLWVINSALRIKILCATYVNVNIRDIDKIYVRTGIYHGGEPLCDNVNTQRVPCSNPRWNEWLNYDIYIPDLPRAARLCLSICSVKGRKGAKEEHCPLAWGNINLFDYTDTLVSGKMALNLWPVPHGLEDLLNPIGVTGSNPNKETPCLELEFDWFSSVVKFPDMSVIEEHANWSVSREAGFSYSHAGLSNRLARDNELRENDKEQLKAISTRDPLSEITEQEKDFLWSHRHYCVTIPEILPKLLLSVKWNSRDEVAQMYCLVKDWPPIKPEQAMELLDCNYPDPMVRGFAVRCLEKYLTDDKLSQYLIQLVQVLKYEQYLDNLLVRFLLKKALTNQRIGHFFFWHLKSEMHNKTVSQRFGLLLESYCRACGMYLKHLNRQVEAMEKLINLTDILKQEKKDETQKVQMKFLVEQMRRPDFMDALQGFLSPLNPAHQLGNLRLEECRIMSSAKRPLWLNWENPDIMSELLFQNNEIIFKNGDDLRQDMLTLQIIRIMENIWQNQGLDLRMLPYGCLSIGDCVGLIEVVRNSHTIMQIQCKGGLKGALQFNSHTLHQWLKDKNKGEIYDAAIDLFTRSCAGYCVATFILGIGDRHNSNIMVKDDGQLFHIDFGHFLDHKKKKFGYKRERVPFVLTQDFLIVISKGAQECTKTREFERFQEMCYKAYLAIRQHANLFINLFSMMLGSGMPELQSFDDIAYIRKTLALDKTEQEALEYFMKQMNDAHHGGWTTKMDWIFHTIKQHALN
T1 sequence (P27986 whole entry partner): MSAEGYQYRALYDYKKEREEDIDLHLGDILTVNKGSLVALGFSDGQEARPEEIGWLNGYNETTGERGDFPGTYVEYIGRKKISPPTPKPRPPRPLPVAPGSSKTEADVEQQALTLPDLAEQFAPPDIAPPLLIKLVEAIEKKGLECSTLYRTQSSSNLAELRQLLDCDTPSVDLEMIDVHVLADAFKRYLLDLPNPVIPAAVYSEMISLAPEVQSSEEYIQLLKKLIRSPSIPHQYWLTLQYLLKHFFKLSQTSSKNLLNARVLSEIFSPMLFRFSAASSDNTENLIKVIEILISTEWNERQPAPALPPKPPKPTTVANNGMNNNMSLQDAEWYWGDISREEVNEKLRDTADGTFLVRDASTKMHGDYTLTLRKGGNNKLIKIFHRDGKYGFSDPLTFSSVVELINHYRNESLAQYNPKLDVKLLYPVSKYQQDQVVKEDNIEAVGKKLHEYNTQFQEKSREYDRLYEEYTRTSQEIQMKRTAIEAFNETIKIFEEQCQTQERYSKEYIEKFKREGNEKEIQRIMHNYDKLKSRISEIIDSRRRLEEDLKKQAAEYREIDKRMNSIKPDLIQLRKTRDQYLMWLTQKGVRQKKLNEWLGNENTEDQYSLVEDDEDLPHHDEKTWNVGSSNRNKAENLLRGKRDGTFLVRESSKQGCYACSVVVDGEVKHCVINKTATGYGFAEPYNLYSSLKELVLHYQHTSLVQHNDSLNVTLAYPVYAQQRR

Row | Compound | Ki (PI3Kα [1]) | IC50 [2] | also measured
1 | COc1ncc(Nc2ncc(C(C)CO)cc2-c2nc(C)nc(N)n2)cc1F (single isomer, unassigned) [312 First eluting, 2-(5-(4-Amino-6-methyl-1,3,5-triazin-2-yl)-6-(5-fluoro-6-methoxypyridin-3-ylamino)pyridin-3-yl)propan-1-ol] | 9 nM | – | –
2 | COc1ccc(Nc2ncc([C@@H](O)C(C)(C)C)cc2-c2nc(C)nc3c2ncn3C2CCCCO2)cn1 (stereo partly drawn) [Example 132, (1S)-1-(6-(6-Methoxypyridin-3-Ylamino)-5-(2-Methyl-9-(Tetrahydro-2H-Pyran-2-yl)-9H-Purin-6-yl)Pyridin-3-yl)-2,2-Dimethylpropan-1-ol] | 12 nM | 147 nM | –
3 | COc1ncc(Nc2ncc(C(C)CO)cc2-c2nc(C)nc(N)n2)cc1F (single isomer, unassigned) [312 Second eluting, 2-(5-(4-Amino-6-methyl-1,3,5-triazin-2-yl)-6-(5-fluoro-6-methoxypyridin-3-ylamino)pyridin-3-yl)propan-1-ol] | 7 nM | – | –
4 | COc1ccc(Nc2ncc([C@@H](O)C(F)(F)F)cc2-c2nc(C)nc(N)n2)cn1.COc1ccc(Nc2ncc([C@H](O)C(F)(F)F)cc2-c2nc(C)nc(N)n2)cn1 (racemic) [Example 269, (R,S)-1-(5-(4-Amino-6-Methyl-1,3,5-Triazin-2-yl)-6-(6-Methoxypyridin-3-Ylamino)Pyridin-3-yl)-2,2,2-Trifluoroethanol] | – | – | Ki (PI3Kα [3]): 33 nM; IC50 ([4]; pAkt (Ser 473), U87 MG cells, two hours with compound): 89 nM
5 | 4-((5-(4-Amino-6-Methyl-1,3,5-Triazin-2-yl)-6-(5-Fluoro-6-Methoxypyridin-3-Ylaamino)Pyridin-3-yl)Methyl)-N-Methyl-N-(2,2,2-Trifluoroethyl)Piperazine-1-Carboxamide [Example 358] | – | – | Ki (PI3Kα [3]): 24 nM; IC50 [4]: 121 nM

Further lines, with some results ahead:

Row | Ki (PI3Kα [1]) | IC50 [2] | Compound | also measured
6 | 45 nM | 90 nM | COc1ccc(Nc2ncc(CN3CCN(C(=O)N(C)C4CC4)CC3)cc2-c2nc(C)nc(N)n2)cn1 [Example 359, 4-((5-(4-Amino-6-Methyl-1,3,5-Triazin-2-yl)-6-(6-Methoxypyridin-3-Ylamino)Pyridin-3-yl)Methyl)-N-Cyclopropyl-N-Methylpiperazine-1-Carboxamide] | –
7 | 31 nM | 278 nM | COc1ccc(Nc2ncc([C@H](O)C(C)(C)C)cc2-c2nc(C)nc3c2ncn3C2CCCCO2)cn1 (stereo partly drawn) [Example 133, (1R)-1-(6-(6-Methoxypyridin-3-Ylamino)-5-(2-Methyl-9-(Tetrahydro-2H-Pyran-2-yl)-9H-Purin-6-yl)Pyridin-3-yl)-2,2-Dimethylpropan-1-ol] | –
